Literature values in PMC5613062 (Investigational New Drugs, 2017).
Read-outs that look alike come from different tables or passages of the source.

Columns and labels:
[1] = design: method as in earlier work; conditions: rat; ref IB; cited from earlier work
panel of other kinases = test system: panel of other kinases; design: method as in earlier work; conditions: ref IB; cited from earlier work
3T3 = test system: 3T3; design: method as in earlier work; conditions: 3T3 Neutral Red Uptake phototoxicity test; ref IB; cited from earlier work
[2] = design: method as in earlier work; conditions: Minipig; ref IB; cited from earlier work
[3] = test system: HCT-116 human colorectal cancer xenograft; design: method as in earlier work; conditions: AZD6244 25 m/kg BD; docetaxel 15 mg/kg once weekly; ref IB; cited from earlier work
[4] = design: method as in earlier work; conditions: monkey; ref IB; cited from earlier work

For `Cn1cnc2c(F)c(Nc3ccc(Br)cc3Cl)c(C(=O)NOCCO)cc21` [Selumetinib], the Protein binding [1] is listed as 99.7%, the “activity against a panel of other kinases” value (panel of other kinases) is listed as “inactive, or only minimally active” and the “cytotoxicity in the presence of UV light” value (3T3) is listed as “enhanced”. The Protein binding [2] was 93.7%, the “Tumor growth inhibition as a % of control” value [3] was 64.9 % of control and the Protein binding [4] was 97.7%.
